In patent US8952157B2, “Apoptosis-inducing agents for the treatment of cancer and immune and autoimmune diseases” (AbbVie Inc., priority 2008, dated 2015) one finds Ki data, which are given here for 18 compounds.

The target of this experiment is GST-Bcl-2 (Homo sapiens (Human), UniProt P10415). Put plainly: Time Resolved-Fluorescence Resonance Energy Transfer (TR-FRET) Bcl-2 binding assay. Conditions: GST-Bcl-2 1 nM, F-Bak peptide probe 100 nM, Tb-anti-GST antibody 1 nM; Ki by Wang's equation. The procedure, abridged: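 Ki values derived from TR-FRET displacement of F-Bak peptide from GST-Bcl-2, detected with Tb-labelled anti-GST antibody (ex 340, em 520/495 nm). Compound dilution series started at 50 μM (2× starting concentration); room-temperature incubation 3 hours.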
Sequence of GST-Bcl-2 (P10415 whole entry): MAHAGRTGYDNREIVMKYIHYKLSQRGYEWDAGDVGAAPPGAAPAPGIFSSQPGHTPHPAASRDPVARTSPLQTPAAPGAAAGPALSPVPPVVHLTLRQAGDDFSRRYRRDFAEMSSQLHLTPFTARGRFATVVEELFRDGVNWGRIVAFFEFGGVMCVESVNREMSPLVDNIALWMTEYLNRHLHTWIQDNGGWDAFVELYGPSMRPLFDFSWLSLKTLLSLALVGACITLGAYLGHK
On the technique in general: Time-resolved FRET reads energy transfer from a long-lived donor to a nearby acceptor.
Usually Ki stands for the equilibrium dissociation constant of an inhibitor or competing ligand from its target. `CC1(C)CCC(CN2CCN(c3ccc(C(=O)NS(=O)(=O)c4ccc(NCC5CCOCC5)c([N+](=O)[O-])c4)c(Oc4cc5cc[nH]c5cc4F)c3)CC2)=C(c2ccc(Cl)cc2)C1` [Example 238, 4-(4-{[2-(4-chlorophenyl)-4,4-dimethylcyclohex-1-en-1-yl]methyl}piperazin-1-yl)-2-[(6-fluoro-1H-indol-5-yl)oxy]-N-({3-nitro-4-[(tetrahydro-2H-pyran-4-ylmethyl)amino]phenyl}sulfonyl)benzamide] showed a Ki of 0.124 nM. This counts as sub-nanomolar.

Compound `CC1(C)CCC(CN2CCN(c3ccc(C(=O)NS(=O)(=O)c4ccc(NC(CO)C5CCOCC5)c([N+](=O)[O-])c4)c(Oc4cc5cc[nH]c5cc4F)c3)CC2)=C(c2ccc(Cl)cc2)C1` (stereo not drawn) [Example 240, 4-(4-{[2-(4-chlorophenyl)-4,4-dimethylcyclohex-1-en-1-yl]methyl}piperazin-1-yl)-2-[(6-fluoro-1H-indol-5-yl)oxy]-N-({4-[(2-hydroxy-1-tetrahydro-2H-pyran-4-ylethyl)amino]-3-nitrophenyl}sulfonyl)benzamide] came in with a Ki of 0.912 nM.

With `CC1(C)CCC(CN2CCN(c3ccc(C(=O)NS(=O)(=O)c4ccc(NC5CCN(C6CCOCC6)CC5)c([N+](=O)[O-])c4)c(Oc4cc5cc[nH]c5cc4Cl)c3)CC2)=C(c2ccc(Cl)cc2)C1` [Example 242, 2-[(6-chloro-1H-indol-5-yl)oxy]-4-(4-{[2-(4-chlorophenyl)-4,4-dimethylcyclohex-1-en-1-yl]methyl}piperazin-1-yl)-N-({3-nitro-4-[(1-tetrahydro-2H-pyran-4-ylpiperidin-4-yl)amino]phenyl}sulfonyl)benzamide], the inhibitory constant (Ki) is 0.092 nM.

In turn, `CC1(C)CCC(CN2CCN(c3ccc(C(=O)NS(=O)(=O)c4ccc(NCC5CCOCC5)c([N+](=O)[O-])c4)c(Oc4cc5cc[nH]c5c(F)c4F)c3)CC2)=C(c2ccc(Cl)cc2)C1` [Example 243, 4-(4-{[2-(4-chlorophenyl)-4,4-dimethylcyclohex-1-en-1-yl]methyl}piperazin-1-yl)-2-[(6,7-difluoro-1H-indol-5-yl)oxy]-N-({3-nitro-4-[(tetrahydro-2H-pyran-4-ylmethyl)amino]phenyl}sulfonyl)benzamide] gave an inhibition constant Ki of 0.069 nM.

Take `CN1CCN(Nc2ccc(S(=O)(=O)NC(=O)c3ccc(N4CCN(CC5=C(c6ccc(Cl)cc6)CC(C)(C)CC5)CC4)cc3Oc3cc4cc[nH]c4cc3Cl)cc2[N+](=O)[O-])CC1` [Example 244, 2-[(6-chloro-1H-indol-5-yl)oxy]-4-(4-{[2-(4-chlorophenyl)-4,4-dimethylcyclohex-1-en-1-yl]methyl}piperazin-1-yl)-N-({4-[(4-methylpiperazin-1-yl)amino]-3-nitrophenyl}sulfonyl)benzamide]: the Ki amounted to 1.73 nM. Compared with the last compound, the Ki is about 25-fold higher.

With `CC1(C)CCC(CN2CCN(c3ccc(C(=O)NS(=O)(=O)c4ccc(NC5CCN(Cc6cscn6)CC5)c([N+](=O)[O-])c4)c(Oc4cc5cc[nH]c5cc4F)c3)CC2)=C(c2ccc(Cl)cc2)C1` [Example 245, 4-(4-{[2-(4-chlorophenyl)-4,4-dimethylcyclohex-1-en-1-yl]methyl}piperazin-1-yl)-2-[(6-fluoro-1H-indol-5-yl)oxy]-N-[(3-nitro-4-{[1-(1,3-thiazol-4-ylmethyl)piperidin-4-yl]amino}phenyl)sulfonyl]benzamide], the affinity corresponds to a Ki of 0.48 nM. This Ki lies about 3.6-fold lower than the previous one.

As to `CC1(C)CCC(CN2CCN(c3ccc(C(=O)NS(=O)(=O)c4ccc(NCC5CCOCC5)c([N+](=O)[O-])c4)c(Oc4cccc(Cl)c4)c3)CC2)=C(c2ccc(Cl)cc2)C1` [Example 246, 2-(3-chlorophenoxy)-4-(4-{[2-(4-chlorophenyl)-4,4-dimethylcyclohex-1-en-1-yl]methyl}piperazin-1-yl)-N-({3-nitro-4-[(tetrahydro-2H-pyran-4-ylmethyl)amino]phenyl}sulfonyl)benzamide], the Ki is 0.065 nM.

`CC1(C)CCC(CN2CCN(c3ccc(C(=O)NS(=O)(=O)c4ccc(NCC5CCOCC5)c([N+](=O)[O-])c4)c(Oc4ccc(N)c(Cl)c4)c3)CC2)=C(c2ccc(Cl)cc2)C1` [Example 247, 2-(4-amino-3-chlorophenoxy)-4-(4-{[2-(4-chlorophenyl)-4,4-dimethylcyclohex-1-en-1-yl]methyl}piperazin-1-yl)-N-({3-nitro-4-[(tetrahydro-2H-pyran-4-ylmethyl)amino]phenyl}sulfonyl)benzamide] yielded a Ki of 0.039 nM. Compared with the last compound, the Ki is about 1.7-fold lower.

For the compound `CC1(C)CCC(CN2CCN(c3ccc(C(=O)NS(=O)(=O)c4ccc(NCC5(N)CCOCC5)c([N+](=O)[O-])c4)c(Oc4cc5cc[nH]c5cc4F)c3)CC2)=C(c2ccc(Cl)cc2)C1` [Example 248, N-[(4-{[(4-aminotetrahydro-2H-pyran-4-yl)methyl]amino}-3-nitrophenyl)sulfonyl]-4-(4-{[2-(4-chlorophenyl)-4,4-dimethylcyclohex-1-en-1-yl]methyl}piperazin-1-yl)-2-[(6-fluoro-1H-indol-5-yl)oxy]benzamide], the inhibitory constant (Ki) stood at 0.051 nM.

On to `CC1(C)CCC(CN2CCN(c3ccc(C(=O)NS(=O)(=O)c4ccc(N[C@@H]5CCN(Cc6cscn6)C[C@@H]5O)c([N+](=O)[O-])c4)c(Oc4cc5cc[nH]c5cc4F)c3)CC2)=C(c2ccc(Cl)cc2)C1` [Example 249, 4-(4-{[2-(4-chlorophenyl)-4,4-dimethylcyclohex-1-en-1-yl]methyl}piperazin-1-yl)-2-[(6-fluoro-1H-indol-5-yl)oxy]-N-[(4-{[(3S,4R)-3-hydroxy-1-(1,3-thiazol-4-ylmethyl)piperidin-4-yl]amino}-3-nitrophenyl)sulfonyl]benzamide], for which the Ki worked out at 0.168 nM. This Ki is about 3.3-fold higher than that of the compound before.

As to `CC1(C)CCC(CN2CCN(c3ccc(C(=O)NS(=O)(=O)c4ccc(NC5CCOCC5)c([N+](=O)[O-])c4)c(Oc4cc5cc[nH]c5cc4F)c3)CC2)=C(c2ccc(Cl)cc2)C1` [Example 251, 4-(4-{[2-(4-chlorophenyl)-4,4-dimethylcyclohex-1-en-1-yl]methyl}piperazin-1-yl)-2-[(6-fluoro-1H-indol-5-yl)oxy]-N-{[3-nitro-4-(tetrahydro-2H-pyran-4-ylamino)phenyl]sulfonyl}benzamide], the affinity corresponds to a Ki of 0.435 nM.

With `CC1(C)CCC(CN2CCN(c3ccc(C(=O)NS(=O)(=O)c4ccc(NN5CCOCC5)c([N+](=O)[O-])c4)c(Oc4cc5cc[nH]c5cc4F)c3)CC2)=C(c2ccc(Cl)cc2)C1` [Example 252, 4-(4-{[2-(4-chlorophenyl)-4,4-dimethylcyclohex-1-en-1-yl]methyl}piperazin-1-yl)-2-[(6-fluoro-1H-indol-5-yl)oxy]-N-{[4-(morpholin-4-ylamino)-3-nitrophenyl]sulfonyl}benzamide], the Ki worked out at 1.15 nM.

Compound `CC1(C)CCC(CN2CCN(c3ccc(C(=O)NS(=O)(=O)c4ccc(NN5CCOCC5)c([N+](=O)[O-])c4)c(Oc4cccc(Cl)c4)c3)CC2)=C(c2ccc(Cl)cc2)C1` [Example 253, 2-(3-chlorophenoxy)-4-(4-{[2-(4-chlorophenyl)-4,4-dimethylcyclohex-1-en-1-yl]methyl}piperazin-1-yl)-N-{[4-(morpholin-4-ylamino)-3-nitrophenyl]sulfonyl}benzamide] had an inhibition constant Ki of 0.05 nM.

Consider `CC1(C)CCC(CN2CCN(c3ccc(C(=O)NS(=O)(=O)c4ccc(NCCCN5CCNC(=O)C5)c([N+](=O)[O-])c4)c(Oc4ccccc4Cl)c3)CC2)=C(c2ccc(Cl)cc2)C1` [Example 254, 2-(2-chlorophenoxy)-4-(4-{[2-(4-chlorophenyl)-4,4-dimethylcyclohex-1-en-1-yl]methyl}piperazin-1-yl)-N-[(3-nitro-4-{[3-(3-oxopiperazin-1-yl)propyl]amino}phenyl)sulfonyl]benzamide], for which the Ki turned out to be 0.119 nM. This Ki lies about 2.4-fold higher than the previous one.

Consider `CC1(C)CCC(CN2CCN(c3ccc(C(=O)NS(=O)(=O)c4ccc(NC5CCN(C6CCOCC6)CC5)c([N+](=O)[O-])c4)c(-c4ccc(N)nc4)c3)CC2)=C(c2ccc(Cl)cc2)C1` [Example 255, 2-(6-aminopyridin-3-yl)-4-(4-{[2-(4-chlorophenyl)-4,4-dimethylcyclohex-1-en-1-yl]methyl}piperazin-1-yl)-N-({3-nitro-4-[(1-tetrahydro-2H-pyran-4-ylpiperidin-4-yl)amino]phenyl}sulfonyl)benzamide], for which the affinity, expressed as Ki, was 7.01 nM.

The compound `CC1(C)CCC(CN2CCN(c3ccc(C(=O)NS(=O)(=O)c4ccc(NCCCN5CCNC(=O)C5)c([N+](=O)[O-])c4)c(Oc4cc(F)cc5[nH]ccc45)c3)CC2)=C(c2ccc(Cl)cc2)C1` [Example 257, 4-(4-{[2-(4-chlorophenyl)-4,4-dimethylcyclohex-1-en-1-yl]methyl}piperazin-1-yl)-2-[(6-fluoro-1H-indol-4-yl)oxy]-N-[(3-nitro-4-{[3-(3-oxopiperazin-1-yl)propyl]amino}phenyl)sulfonyl]benzamide] came in with a Ki of 0.097 nM. Against the preceding compound, the Ki is about 72-fold lower.

In turn, `CC1(C)CCC(CN2CCN(c3ccc(C(=O)NS(=O)(=O)c4ccc(NC[C@@H]5CCCOC5)c([N+](=O)[O-])c4)c(Oc4cc5cc[nH]c5cc4F)c3)CC2)=C(c2ccc(Cl)cc2)C1` [Example 258, 4-(4-{[2-(4-chlorophenyl)-4,4-dimethylcyclohex-1-en-1-yl]methyl}piperazin-1-yl)-2-[(6-fluoro-1H-indol-5-yl)oxy]-N-[(3-nitro-4-{[(3S)-tetrahydro-2H-pyran-3-ylmethyl]amino}phenyl)sulfonyl]benzamide] returned a Ki of 0.083 nM.

Compound `CC1(C)CCC(CN2CCN(c3ccc(C(=O)NS(=O)(=O)c4ccc(NC[C@H]5CCCOC5)c([N+](=O)[O-])c4)c(Oc4cc5cc[nH]c5cc4F)c3)CC2)=C(c2ccc(Cl)cc2)C1` [Example 259, 4-(4-{[2-(4-chlorophenyl)-4,4-dimethylcyclohex-1-en-1-yl]methyl}piperazin-1-yl)-2-[(6-fluoro-1H-indol-5-yl)oxy]-N-[(3-nitro-4-{[(3R)-tetrahydro-2H-pyran-3-ylmethyl]amino}phenyl)sulfonyl]benzamide] showed a Ki of 0.165 nM.
